Tests used:
Type in all cases: biochemical
[1] = target: LRRK2 (Homo sapiens, UniProt Q5S007); experiment: LRRK2 enzyme inhibition, ADP-Glo kinase assay; set-up: purchased Invitrogen PR8604B
Procedure, shortened: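 Purified human LRRK2 (25 ng) in 40 mM Tris-HCl pH7.4, 20 mM MgCl2, 0.5 mg/ml BSA, 50 μM DTT with 10 μM ATP and substrate ([…]), 2 h at 25° C. Final compound 50 to 0.000001024 μM, 12-point dilution. ADP-Glo luminescence vs solvent control; IC50 (nM).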

[2] = target: T1, human GST-DYRK1A (full length) (Homo sapiens, UniProt Q13627); experiment: GST-DYRK1A enzyme inhibition, ADP-Glo kinase assay; details: read-out: DYRK1 IC50
T1 construct: purified human GST-DYRK1A (full length, Thermo scientifics) enzyme; GST; purchased Thermo scientifics
Procedure, shortened: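 Full-length human GST-DYRK1A (10 ng) incubated with 10 uM ATP and specific substrate for 1 h at 25° C in 40 mM Tris-HCl pH 7.4, 20 mM MgCl2, 0.5 mg/mL BSA, 50 uM DTT. ADP formation read by ADP-Glo luminescence; IC50 (nM) versus solvent control, triplicate.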

[3] = target: LRRK2 (G2019S) (Homo sapiens, UniProt Q5S007, G2019S); experiment: LRRK2 G2019S enzyme inhibition, ADP-Glo kinase assay; set-up: purchased SignalChem L10-12GG
Sequence of LRRK2 (G2019S) (Q5S007 970-2527 G2019S limits assumed): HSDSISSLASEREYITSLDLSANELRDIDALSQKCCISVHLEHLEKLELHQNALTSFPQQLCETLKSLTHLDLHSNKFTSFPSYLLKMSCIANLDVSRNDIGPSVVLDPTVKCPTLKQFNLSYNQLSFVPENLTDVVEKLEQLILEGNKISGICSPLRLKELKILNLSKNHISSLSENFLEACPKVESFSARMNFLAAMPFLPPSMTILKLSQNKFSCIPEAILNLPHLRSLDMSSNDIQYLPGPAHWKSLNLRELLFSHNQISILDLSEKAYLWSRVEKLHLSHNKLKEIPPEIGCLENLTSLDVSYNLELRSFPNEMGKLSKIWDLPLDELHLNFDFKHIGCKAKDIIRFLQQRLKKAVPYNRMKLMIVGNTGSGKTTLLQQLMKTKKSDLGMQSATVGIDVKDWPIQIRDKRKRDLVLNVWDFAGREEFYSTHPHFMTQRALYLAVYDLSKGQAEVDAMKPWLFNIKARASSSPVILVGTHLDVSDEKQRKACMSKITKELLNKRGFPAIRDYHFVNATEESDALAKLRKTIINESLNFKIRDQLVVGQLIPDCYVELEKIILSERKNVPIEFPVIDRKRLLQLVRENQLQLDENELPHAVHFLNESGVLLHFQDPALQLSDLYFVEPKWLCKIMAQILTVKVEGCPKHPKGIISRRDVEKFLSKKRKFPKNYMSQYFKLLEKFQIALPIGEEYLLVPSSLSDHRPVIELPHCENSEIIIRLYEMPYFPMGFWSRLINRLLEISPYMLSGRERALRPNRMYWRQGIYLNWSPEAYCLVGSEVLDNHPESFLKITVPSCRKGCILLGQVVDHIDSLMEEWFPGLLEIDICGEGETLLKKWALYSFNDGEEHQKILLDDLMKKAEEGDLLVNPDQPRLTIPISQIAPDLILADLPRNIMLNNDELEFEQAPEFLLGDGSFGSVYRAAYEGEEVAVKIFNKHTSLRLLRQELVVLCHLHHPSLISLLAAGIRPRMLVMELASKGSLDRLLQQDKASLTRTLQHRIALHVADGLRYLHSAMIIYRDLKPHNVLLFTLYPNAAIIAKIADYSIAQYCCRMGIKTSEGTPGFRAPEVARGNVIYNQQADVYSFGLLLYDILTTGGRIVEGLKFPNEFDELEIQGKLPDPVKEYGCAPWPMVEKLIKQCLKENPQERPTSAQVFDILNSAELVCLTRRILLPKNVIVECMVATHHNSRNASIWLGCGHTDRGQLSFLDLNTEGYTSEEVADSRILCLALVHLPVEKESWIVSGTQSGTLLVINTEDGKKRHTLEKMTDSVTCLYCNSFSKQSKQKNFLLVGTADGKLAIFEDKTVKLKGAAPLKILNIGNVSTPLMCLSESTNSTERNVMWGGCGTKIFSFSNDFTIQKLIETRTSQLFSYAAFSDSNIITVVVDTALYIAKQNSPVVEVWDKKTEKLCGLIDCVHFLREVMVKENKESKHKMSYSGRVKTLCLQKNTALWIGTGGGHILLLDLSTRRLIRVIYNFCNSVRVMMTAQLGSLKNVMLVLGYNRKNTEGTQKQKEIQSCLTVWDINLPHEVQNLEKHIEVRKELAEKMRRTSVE
Procedure, shortened: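 Purified human LRRK2 G2019S (16 ng) with 25 μM ATP and 0.2 μg substrate, 2 h at 25° C in 40 mM Tris-HCl pH 7.4, 20 mM MgCl2, 0.5 mg/ml BSA, 50 μM DTT; compound at 12 final concentrations from 50 μM downward. ADP-Glo luminescence versus solvent control gave IC50 (nM).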

[4] = target: T2, human GST-CLK1 (129-end) (Homo sapiens, UniProt P49759); experiment: GST-CLK1 enzyme inhibition, ADP-Glo kinase assay; details: ATP 10 uM
T2 construct: purified human GST-CLK1 (129-end, Signalchem) enzyme; GST; purchased Signalchem
T2 sequence (P49759 129-484 limits assumed): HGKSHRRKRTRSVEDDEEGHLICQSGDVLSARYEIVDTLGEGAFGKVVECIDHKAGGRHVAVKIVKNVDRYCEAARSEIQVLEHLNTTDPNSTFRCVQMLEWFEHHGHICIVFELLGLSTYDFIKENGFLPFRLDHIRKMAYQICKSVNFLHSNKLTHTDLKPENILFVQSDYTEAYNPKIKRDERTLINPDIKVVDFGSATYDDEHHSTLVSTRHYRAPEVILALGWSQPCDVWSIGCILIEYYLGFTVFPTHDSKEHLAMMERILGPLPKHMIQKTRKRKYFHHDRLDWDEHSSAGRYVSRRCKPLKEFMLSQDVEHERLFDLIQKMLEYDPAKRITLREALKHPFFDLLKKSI
Procedure, shortened: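 GST-CLK1 (129-end, 3 ng) reacted with 10 uM ATP and substrate in 40 mM Tris-HCl pH 7.4, 20 mM MgCl2, 0.5 mg/mL BSA, 50 uM DTT, 1 h at 25° C. ADP-Glo luminescence normalised to solvent control; IC50 from triplicate data.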

Sequence of LRRK2 (Q5S007 970-2527 limits assumed): as the sequence (Q5S007 970-2527 G2019S limits assumed) above, with S1050G counted along it

SMILES | IC50 [1] [nM] | IC50 [2] [nM] | IC50 [3] [nM] | IC50 [4] [nM]
O=C(c1ccc(Nc2cc(NC3CC3)c3c(C(F)(F)F)c[nH]c3n2)c2c1OCCO2)N1CCOCC1 [Example 155, (8-((4-(cyclopropylamino)-3-(trifluoromethyl)-1H-pyrrolo[2,3-b]pyridin-6-yl)amino)-2,3-dihydrobenzo[b] [1,4]dioxin-5-yl)(morpholino) methanone 2,2,2-trifluoroacetate] | < 100 | 301 to 1000 | 101 to 300 | < 100
CC(C)CNc1cc(Nc2ccc(C(=O)N3CCOCC3)c3c2OCCO3)nc2[nH]cc(C(F)(F)F)c12 [Example 156, (8-((4-(isobutylamino)-3-(trifluoromethyl)-1H-pyrrolo[2,3-b]pyridin-6-yl)amino)-2,3-dihydrobenzo[b] [1,4]dioxin-5-yl)(morpholino) methanone] | < 100 | 301 to 1000 | 301 to 1000 | 301 to 1000
COCCNc1cc(Nc2ccc(C(=O)N3CCOCC3)c3c2OCCO3)nc2[nH]cc(C(F)(F)F)c12 [Example 158, (8-((4-((2-methoxyethyl)amino)-3-(trifluoromethyl)-1H-pyrrolo[2,3-b]pyridin-6-yl)amino)-2,3-dihydrobenzo[b] [1,4]dioxin-5-yl)(morpholino) methanone] | < 100 | < 100 | < 100 | < 100
CCNc1cc(Nc2ccc(C(=O)N3CCC(N4CCOCC4)CC3)c3c2OCCO3)nc2[nH]cc(C(F)(F)F)c12 [Example 161, (8-((4-(ethylamino)-3-(trifluoromethyl)-1H-pyrrolo[2,3-b]pyridin-6-yl)amino)-2,3-dihydrobenzo[b] [1,4]dioxin-5-yl)(4-morpholinopiperidin-1-yl)methanone] | < 100 | 101 to 300 | < 100 | < 100
COCCNc1cc(Nc2ccc(C(=O)N3CCC(N4CCOCC4)CC3)c3c2OCCO3)nc2[nH]cc(C(F)(F)F)c12 [Example 164, (8-((4-((2-methoxyethyl)amino)-3-(trifluoromethyl)-1H-pyrrolo[2,3-b]pyridin-6-yl)amino)-2,3-dihydrobenzo[b] [1,4]dioxin-5-yl)(4-morpholinopiperidin-1-yl)methanone] | < 100 | < 100 | < 100 | < 100
CS(=O)(=O)CCNc1cc(Nc2ccc(C(=O)N3CCC(N4CCOCC4)CC3)c3c2OCCO3)nc2[nH]cc(C(F)(F)F)c12 [Example 165, (8-((4-((2-(methylsulfonyl)ethyl)amino)-3-(trifluoromethyl)-1H-pyrrolo[2,3-b]pyridin-6-yl)amino)-2,3-dihydrobenzo[b] [1,4]dioxin-5-yl)(4-morpholinopiperidin-1-yl)methanone] | < 100 | < 100 | < 100 | < 100
CNc1cc(Nc2ccc(S(=O)(=O)N3CCOCC3)cc2OC)nc2[nH]cc(C(F)(F)F)c12 [Example 177, N^6-(2-methoxy-4-(morpholinosulfonyl)phenyl)-N^4-methyl-3-(trifluoromethyl)-1H-pyrrolo[2,3-b]pyridine-4,6-diamine] | 301 to 1000 | 301 to 1000 | 301 to 1000 | 301 to 1000
CNc1cc(Nc2ccc(S(C)(=O)=O)cc2OC)nc2[nH]cc(C(F)(F)F)c12 [Example 178, N^6-(2-methoxy-4-(methylsulfonyl)phenyl)-N^4-methyl-3-(trifluoromethyl)-1H-pyrrolo[2,3-b]pyridine-4,6-diamine] | 301 to 1000 | < 100 | 301 to 1000 | 301 to 1000
CCNc1cc(Nc2ccc(S(C)(=O)=O)cc2OC)nc2[nH]cc(C(F)(F)F)c12 [Example 180, N^4-ethyl-N^6-(2-methoxy-4-(methylsulfonyl)phenyl)-3-(trifluoromethyl)-1H-pyrrolo[2,3-b]pyridine-4,6-diamine] | 301 to 1000 | 301 to 1000 | 301 to 1000 | 301 to 1000
COc1cc(S(C)(=O)=O)ccc1Nc1cc(NC2CCCCC2)c2c(C(F)(F)F)c[nH]c2n1 [Example 182, N^4-cyclohexyl-N^6-(2-methoxy-4-(methylsulfonyl)phenyl)-3-(trifluoromethyl)-1H-pyrrolo[2,3-b]pyridine-4,6-diamine] | 301 to 1000 | 301 to 1000 | 301 to 1000 | 301 to 1000
COc1cc(S(=O)(=O)N2CCC(N3CCOCC3)CC2)ccc1Nc1cc(NC2CCCCC2)c2c(C(F)(F)F)c[nH]c2n1 [Example 183, N^4-cyclohexyl-N^6-(2-methoxy-4-((4-morpholinopiperidin-1-yl)sulfonyl)phenyl)-3-(trifluoromethyl)-1H-pyrrolo[2,3-b]pyridine-4,6-diamine] | 301 to 1000 | 301 to 1000 | 301 to 1000 | 301 to 1000
COc1cc(S(C)(=O)=O)ccc1Nc1cc(NC2CC2)c2c(C(F)(F)F)c[nH]c2n1 [Example 187, N^4-cyclopropyl-N^6-(2-methoxy-4-(methylsulfonyl)phenyl)-3-(trifluoromethyl)-1H-pyrrolo[2,3-b]pyridine-4,6-diamine] | 301 to 1000 | 301 to 1000 | 301 to 1000 | 301 to 1000
COc1cc(S(C)(=O)=O)ccc1Nc1cc(NCC(C)C)c2c(C(F)(F)F)c[nH]c2n1 [Example 190, N^4-isobutyl-N^6-(2-methoxy-4-(methylsulfonyl)phenyl)-3-(trifluoromethyl)-1H-pyrrolo[2,3-b]pyridine-4,6-diamine] | 301 to 1000 | 301 to 1000 | 301 to 1000 | 301 to 1000

Next, values leading:

IC50 [1] [nM] | IC50 [2] [nM] | IC50 [3] [nM] | IC50 [4] [nM] | SMILES
301 to 1000 | < 100 | 301 to 1000 | < 100 | COc1cc(S(C)(=O)=O)ccc1Nc1cc(NCCS(C)(=O)=O)c2c(C(F)(F)F)c[nH]c2n1 [Example 193, N^6-(2-methoxy-4-(methylsulfonyl)phenyl)-N^4-(2-(methylsulfonyl)ethyl)-3-(trifluoromethyl)-1H-pyrrolo[2,3-b]pyridine-4,6-diamine]
301 to 1000 | 301 to 1000 | 301 to 1000 | 301 to 1000 | CCCNc1cc(Nc2ccc(S(C)(=O)=O)cc2OC)nc2[nH]cc(C(F)(F)F)c12 [Example 200, N^6-(2-methoxy-4-(methylsulfonyl)phenyl)-N^4-propyl-3-(trifluoromethyl)-1H-pyrrolo[2,3-b]pyridine-4,6-diamine]
101 to 300 | 301 to 1000 | 301 to 1000 | 301 to 1000 | COCCNc1cc(Nc2ccc(S(C)(=O)=O)cc2OC)nc2[nH]cc(C(F)(F)F)c12 [Example 201, N^6-(2-methoxy-4-(methylsulfonyl)phenyl)-N^4-(2-methoxyethyl)-3-(trifluoromethyl)-1H-pyrrolo[2,3-b]pyridine-4,6-diamine]
< 100 | 101 to 300 | < 100 | < 100 | CCNc1cc(Nc2ccc(P(C)(=O)N3CCC(N4CCOCC4)CC3)cc2OC)nc2[nH]cc(C(F)(F)F)c12 (centres unmarked) [Example 208, (4-((4-(ethylamino)-3-(trifluoromethyl)-1H-pyrrolo[2,3-b]pyridin-6-yl)amino)-3-methoxyphenyl) (methyl)(4-morpholinopiperidin-1-yl)phosphine oxide]
< 100 | 101 to 300 | < 100 | 301 to 1000 | CCNc1cc(Nc2ccc(P(C)(C)=O)cc2OC)nc2[nH]cc(C(F)(F)F)c12 [Example 209, (4-((4-(ethylamino)-3-(trifluoromethyl)-1H-pyrrolo[2,3-b]pyridin-6-yl)amino)-3-methoxyphenyl) dimethylphosphine oxide]
101 to 300 | 301 to 1000 | 301 to 1000 | 301 to 1000 | COc1cc(S(C)(=O)=O)ccc1Nc1cc(C2CC2)c2c(C#N)c[nH]c2n1 [Example 229, 4-cyclopropyl-6-((2-methoxy-4-(methylsulfonyl)phenyl)amino)-1H-pyrrolo[2,3-b]pyridine-3-carbonitrile]
< 100 | < 100 | 101 to 300 | < 100 | CCNc1cc(Nc2ccc(C(=O)N3CCOCC3)c3c2OCO3)nc2[nH]cc(C(F)(F)F)c12 [Example 236, (7-((4-(ethylamino)-3-(trifluoromethyl)-1H-pyrrolo[2,3-b]pyridin-6-yl)amino)benzo[d][1,3]dioxol-4-yl)(morpholino) methanone]

Source: patent US12240844B2 (Voronoi, Inc., priority 2019, dated 2025)
